This note sets out measurements from patent US20220177459A1, “AROMATIC AMINE COMPOUND AND USE THEREOF IN PREPARATION OF AR AND BRD4 DUAL INHIBITORS AND REGULATORS” (HINOVA PHARMACEUTICALS INC., priority 2019, published 2022).

One test relates to LNCaP/AR cells. Put plainly: Inhibition of proliferation of prostate cancer cells LNCaP/AR (CCK-8). It is filed as cell-based. The settings on record: 144 h, 6 days culture, CCK-8, OD 450 nm, read-out: IC50 (μM), inhibitory activity on prostate cancer cell LNCap/AR. How it is done:
1. Biological determination of the inhibitory effect on the proliferation of prostate cancer cells LNCaP/AR
Cell culture medium: RIPM1640 media, 10% FBS, 1% Pen Strep;
(§1) 1) LNCaP/AR cells were subcultured in cell culture medium, and the cells in good growth condition were seeded in a 96-well plate, with 80 μL per well (i.e. 1000 cells per well), and cultured overnight in a 37° C., 5% CO2 cell incubator.
2) The drug was prepared with dimethylsulfoxide (DMSO) as a 10 mM stock solution.
(§2) Immediately before use, the stock solution was diluted 3 times with DMSO, and then diluted as a 3-fold gradient to obtain 9 concentration gradients. Then, the compound of each concentration was diluted 200 times with the culture media (to ensure that the DMSO concentration in the culture system was 0.1%), and two multiple holes were set for each concentration. 20 μL of the diluted compound was added to the cell culture well (with a final concentration of 10 μM, 3.3 μM, 1.1 μM . . . ), and then shook gently to mix. In addition, three negative control wells with only cells and three blank control wells with only culture medium were included (6 wells being each added with DMSO diluted 200 times with 20 μL culture medium).
(§3) 1) After culturing for 6 days, 10 μL of CCK-8 was added to each well and continued culturing for 1 hour in a 37° C., 5% CO2 cell incubator.
(§4) 2) The absorbance (OD value) was measured at 450 nm using a multifunctional microplate reader.
(§5) 3) The data were analyzed by the Dose-response-inhibition equation in the software GraphPad Prism5, and the IC50 value was obtained.

The test system of the next test is 22RV1 cells. Kind of test: Inhibition of proliferation of other prostate cancer cells: 22RV1. It is filed as cell-based. The settings on record: Homo sapiens, same method as LNCaP/AR. The protocol: as §1, §2, §3, §4, §5
2. Biological determination of the inhibitory effect on the proliferation of other prostate cancer cells
The inhibitory activity of the compound according to the present invention on other drug-resistant prostate cancer cells was measured by the same method as described above, in which VCaP and 22RV1 cells were commercially available.

For `CCN(c1ccc(-c2c[nH]nn2)cc1)c1cc(-c2c(C)noc2C)ccc1C` [Compound 131], in the test on LNCaP/AR cells, the IC50 is 0.88 µM.

Regarding `CCN(c1ccc(-c2nnc[nH]2)cc1)c1cc(-c2c(C)noc2C)ccc1C` [Compound 130], the IC50 with LNCaP/AR cells stood at 1.16 µM.

Consider `CCN(c1ccc(-c2cn[nH]c2C)cc1)c1cc(-c2c(C)noc2C)ccc1C` [Compound 126], for which the results for the IC50 in the test with LNCaP/AR cells and in the test with 22RV1 cells were 0.99 µM and 3.17 µM, respectively.

Consider `CCN(c1ccc(-n2ccnc2)cc1)c1cc(-c2c(C)n[nH]c2C)ccc1C` [Compound 21], for which the IC50 with LNCaP/AR cells is 3.98 µM.

`CCN(c1ccc(-n2ccnc2)cc1)c1cc2c(C)noc2cc1C` [Compound 47]: the IC50 in the test on LNCaP/AR cells was 3.3 µM.

Regarding `CCN(c1ccc(-c2ncon2)cc1)c1cc(-c2c(C)noc2C)ccc1C` [Compound 105, N-(4-(1,2,4-oxadiazole-3-yl)phenyl)-5-(3,5-dimethylisoxazol-4-yl)-N-ethyl-2-methylaniline], the IC50 with LNCaP/AR cells stood at 0.71 µM.

Regarding `CCN(c1ccc(C#N)c(Cl)c1)c1cc(-c2[nH]ncc2C)ccc1C` [Compound 7], in the test with LNCaP/AR cells, the IC50 was determined as 2.19 µM.

Consider `CCCn1nc(C)c(-c2ccc(C)c(N(CC)c3ccc(C#N)c(Cl)c3)c2)c1C` [Compound 5], for which, in the test with LNCaP/AR cells, the IC50 is 1.45 µM.

With `CCN(c1ccc(C2(C#N)CCC2)cc1)c1cc(-c2c(C)noc2C)ccc1C` [Compound 112], in the test on LNCaP/AR cells, the IC50 amounted to 1.86 µM.

With `Cc1ccc(-c2c(C)noc2C)cc1Nc1ccc(Br)cc1` [Compound 120], the IC50 in the test on 22RV1 cells is 0.63 µM.

Take `CCN(c1ccc(-c2cn(C)nn2)cc1)c1cc(-c2c(C)noc2C)ccc1C` [Compound 102, 5-(3,5-dimethylisoxazol-4-yl)-N-ethyl-2-methyl-N-(4-(1-methyl-1H-1,2,3-triazol-4-yl)phenyl)aniline]: in the test with LNCaP/AR cells, the IC50 was found to be 1.45 µM.

In the case of `CCN(c1ccc2cn[nH]c2c1)c1cc(-c2c(C)noc2C)ccc1C` [Compound 114], the IC50 in the test with LNCaP/AR cells is 0.89 µM.

Take `CCN(c1ccc2ncn(C)c2c1)c1cc(-c2c(C)noc2C)ccc1C` [Compound 132]: the IC50 in the test on LNCaP/AR cells is 2.54 µM.

On to `CCN(c1ccc(-n2ccnc2)cc1)c1cc(-c2c(C)nn(CCO)c2C)ccc1C` [Compound 23], for which, in the test with LNCaP/AR cells, the IC50 came out at 6.42 µM.

On to `CCN(c1ccc(-c2cc(C)[nH]n2)cc1)c1cc(-c2c(C)noc2C)ccc1C` [Compound 97, 5-(3,5-dimethylisoxazol-4-)-N-ethyl-2-methyl-N-(4-(5-methyl-1H-pyrazol-3-yl)phenyl)aniline], for which, in the test with LNCaP/AR cells, the IC50 came to 3.23 µM.

On to `CCN(c1ccc(-c2csnn2)cc1)c1cc(-c2c(C)noc2C)ccc1C` [Compound 108, N-(4-(1,2,3-thiazol-4-yl)phenyl)-5-(3,5-dimethylisoxazol-4-yl)-N-ethyl-2-methylaniline], for which the IC50 in the test on LNCaP/AR cells worked out at 0.76 µM.

`Cc1ccc(-c2c(C)noc2C)cc1N(CCO)c1ccc(-n2ccnc2)c(Br)c1` [Compound 58]: the IC50 in the test with LNCaP/AR cells was determined as 2.32 µM.

`CCN(c1ccc2nc[nH]c2c1)c1cc(-c2c(C)noc2C)ccc1C` [Compound 115, N-(5-(3,5-dimethylisoxazol-4-yl)-2-methylphenyl) N-ethyl-1H-benzo[d]imidazole-6-amine]: in the test with LNCaP/AR cells, the IC50 was 1.3 µM.

For the compound `CCN(c1ccc2[nH]ncc2c1)c1cc(-c2c(C)noc2C)ccc1C` [Compound 133], in the test with LNCaP/AR cells, the IC50 came to 8.74 µM.

On to `CCN(c1ccc(-n2cncn2)cc1)c1cc(-c2c(C)noc2C)ccc1C` [Compound 35], for which the IC50 with LNCaP/AR cells was determined as 1.2 µM.

As for `CCN(c1ccc(C(N)=O)cc1)c1cc(-c2c(C)noc2C)ccc1C` [Compound 123], the IC50 came to 3.03 µM in the test with LNCaP/AR cells and 5.64 µM in the test on 22RV1 cells.

On to `CCN(c1ccc(-c2csc(N)n2)cc1)c1cc(-c2c(C)noc2C)ccc1C` [Compound 98, 4-(4-((5-(3,5-dimethylisoxazol-4-)-2-methylphenyl)(ethyl)amino)phenyl)thiazol-2-amine], for which the IC50 in the test with LNCaP/AR cells came to 4.77 µM.

As to `CCN(c1ccc(S(C)(=O)=O)cc1)c1cc(-c2c(C)noc2C)ccc1C` [Compound 113], in the test with LNCaP/AR cells, the IC50 came to 2.53 µM.

For the compound `CCN(c1ccc(N)cc1)c1cc(-c2c(C)noc2C)ccc1C` [Compound 100, N-1-(5-(3,5-dimethylisoxazol-4-yl)-2-methylphenyl) N1-ethylbenzene-1,4-diamine], the IC50 in the test with LNCaP/AR cells came out at 0.7 µM.

For the compound `CCN(c1ccc(C#N)c(Cl)c1)c1cc(-c2c(C)n[nH]c2C)ccc1C` [Compound 1], the IC50 in the test with LNCaP/AR cells was found to be 0.33 µM.

In the case of `CCN(c1ccc(-n2ccnc2)cc1)c1cc2onc(C)c2cc1C` [Compound 48], the IC50 with LNCaP/AR cells was determined as 3.7 µM.

Turning to `CCN(c1ccc(C#N)c(C(F)(F)F)c1)c1cc(-c2c(C)noc2C)ccc1C` [Compound 16], in the test on LNCaP/AR cells, the IC50 was determined as 1.66 µM.

Compound `CCN(c1ccc(OC)cc1)c1cc(-c2c(C)noc2C)ccc1C` [Compound 101] registered an IC50 in the test with 22RV1 cells of 0.07 µM.

For `Cc1ccc(-c2c(C)n[nH]c2C)cc1N(CCCCCO)c1ccc(C#N)c(Cl)c1` [Compound 6], in the test on LNCaP/AR cells, the IC50 was 3.67 µM.

As for `CCN(c1ccc(-c2cnc[nH]2)cc1)c1cc(-c2c(C)noc2C)ccc1C` [Compound 107], the IC50 in the test with LNCaP/AR cells is 3.67 µM.

As to `CCN(c1ccc(-c2ccon2)cc1)c1cc(-c2c(C)noc2C)ccc1C` [Compound 134], the IC50 in the test on LNCaP/AR cells is 0.89 µM; in the test with 22RV1 cells, 6.06 µM.

Turning to `CCN(c1ccc([N+](=O)[O-])cc1)c1cc(-c2c(C)noc2C)ccc1C` [Compound 99], the IC50 with LNCaP/AR cells worked out at 0.4 µM.

Take `CCN(c1ccc(-c2nnco2)cc1)c1cc(-c2c(C)noc2C)ccc1C` [Compound 129]: the results for the IC50 with LNCaP/AR cells and in the test on 22RV1 cells were 1.13 µM and 9.79 µM, respectively.

For the compound `CCN(c1ccc(-c2cncn2C)cc1)c1cc(-c2c(C)noc2C)ccc1C` [Compound 106], in the test on LNCaP/AR cells, the IC50 was 0.7 µM.

`CCN(c1ccc(-n2cnc(Cl)c2)c(Br)c1)c1cc(-c2c(C)noc2C)ccc1C` [Compound 43]: in the test with LNCaP/AR cells, the IC50 was 2.79 µM.

With `CCN(c1ccc(-n2ccnc2)c(Br)c1)c1cc(-c2c(C)noc2C)cnc1C` [Compound 67], in the test with LNCaP/AR cells, the IC50 was 2.03 µM.

For the compound `CCN(c1ccc(C#N)c(Cl)c1)c1cc(-c2c(C)nn(C(C)C)c2C)ccc1C` [Compound 4], the IC50 with LNCaP/AR cells was 1.4 µM.

`CCN(c1ccc(C#N)c(Cl)c1)c1cc(-c2c(C)nn(CC)c2C)ccc1C` [Compound 3]: the IC50 with LNCaP/AR cells worked out at 1.4 µM.

In the case of `CCN(c1ccc(-n2ccnc2)cc1)c1cc(-c2c(C)noc2C)ccc1C` [Compound 25], the IC50 in the test with LNCaP/AR cells amounted to 1.25 µM.

`CCN(c1ccc(-n2cnc(C)c2)c(Br)c1)c1cc(-c2c(C)noc2C)ccc1C` [Compound 57]: the IC50 in the test on LNCaP/AR cells was 2.38 µM.

As to `Cc1ccc(-c2c(C)noc2C)cc1Nc1ccc(-c2c(C)noc2C)cc1` [Compound 119], the IC50 with LNCaP/AR cells was 0.17 µM.

Take `CCN(c1ccc(OC(F)(F)F)cc1)c1cc(-c2c(C)noc2C)ccc1C` [Compound 109]: the IC50 with LNCaP/AR cells was 4.46 µM.
